Measurements as given in patent publication US4137414A, “5-Substituted-2-phenylbenzo[b]thiophene-3-alkylamines and related compounds” (G. D. Searle & Co., priority 1977, dated 1979).
Converted amounts (≈) assume the structure as drawn. Counter-ions that a name gives are not always drawn. Like-named read-outs stand apart in the source and are kept apart here.

Legend:
[1] = test system: Escherialla coli ATCC 8739; assay: Anti-bacterial assay against aerobic bacteria (serial dilution in nutrient broth); type: cell-based; details: no growth of organism; aerobic incubation 20-24 hr. at 37° C.; tested at 100, 10, 1, 0.1 mcgm per ml; read-out: active (minimum concentration at which a compound is active)
Protocol: Evidence of the anti-bacterial utility of the instant compounds vis-a-vis aerobic bacteria is provided by the following standardized test. Nutrient broth (manufactured by Baltimore Biological Laboratories) is prepared by recommended by the manufacturer, sterilized, and inoculated with Escherialla coli ATCC 8739 q.s. one million cells per ml, determined spectrophotometrically. Meanwhile, compound is heated in sterile distilled water at a concentration of 1000 mcgm per ml for 20 minutes at 80° C. This compound preparation is serially diluted and mixed with sufficient inoculated medium to afford concentrations of 100, 10, 1, and 0.1 mcgm of compound per ml. The mixtures thus obtained are incubated aerobically for 20-24 hr. at 37° C. and then examined grossly for growth of the organism. Controls are provided by concurrent incubations identical with the above except that (1) reference standards (4.3, 0.43, 0.043, and 0.0043 mcgm per ml of streptomycin sulfate and 6667, 667, 67, and 7 units of potassium penicillin G) are substituted for compound and (2) neither compound nor reference standard is present. Compounds are considered active if, at the maximum concentrations tested, no growth of organism is observed and no aberrancy is apparent in respect of the controls. Potency is expressed as the minimum concentration at which a compound is active.

[2] = target: dopamine receptors (3H-dopamine sites); assay: Receptor Binding Assay: stereospecific binding of 3H-dopamine to calf caudate membranes; details: displacement of 5nM 3H-dopamine; calf caudate membrane homogenate; 37° C., 15 minutes
Protocol: (§1) The procedure for this assay is as follows:
(§2) Calf caudate nuclei were dissected from freshly obtained brains and stored frozen at -76° C.
(§3) Test compounds were added as 20 μl aliquots from stock solutions prepared in absolute ethanol or 0.1% ascorbic acid.
(§4) Immediately following all incubations, proteins were recovered on Whatman GF/B glass fiber filters under reduced pressure. Trapped membranes were solubilized off the filters using 1 ml NCS tissue solubilizer (Amersham/Searle Corp.) at 50° C. for 1 hour. Then, pH was adjusted by adding 0.1 ml glacial acetic acid, 10 ml PCS (Amersham/Searle) added and samples analyzed for membrane-bound radioactivity using a Mark II liquid scintillation counter (Searle Analytical, Inc.).
(§5) IC50 values were determined from log-probit plots using 4-6 concentrations of each compound.
(§6) There as two indications from the assay data as to whether a compound is a probable neuroleptic. Firstly, it must be a dopamine antagonist. […] In other words, it must have a high ^3 H-DA/^3 H-HALO, IC50 ratio.

[3] = target: T1, dopamine receptors (3H-Haloperidol sites) (Bos taurus, UniProt P20288); details: for antagonist ratios: in words, compared with known neuroleptics
Protocol: as §1, §2, §3, §4, §5, §6

[4] = target: T1, dopamine receptors (3H-Haloperidol sites); assay: biochemical
Protocol: as §1, §2, §3, §4, §5, §6

T1 sequence (P20288 whole entry): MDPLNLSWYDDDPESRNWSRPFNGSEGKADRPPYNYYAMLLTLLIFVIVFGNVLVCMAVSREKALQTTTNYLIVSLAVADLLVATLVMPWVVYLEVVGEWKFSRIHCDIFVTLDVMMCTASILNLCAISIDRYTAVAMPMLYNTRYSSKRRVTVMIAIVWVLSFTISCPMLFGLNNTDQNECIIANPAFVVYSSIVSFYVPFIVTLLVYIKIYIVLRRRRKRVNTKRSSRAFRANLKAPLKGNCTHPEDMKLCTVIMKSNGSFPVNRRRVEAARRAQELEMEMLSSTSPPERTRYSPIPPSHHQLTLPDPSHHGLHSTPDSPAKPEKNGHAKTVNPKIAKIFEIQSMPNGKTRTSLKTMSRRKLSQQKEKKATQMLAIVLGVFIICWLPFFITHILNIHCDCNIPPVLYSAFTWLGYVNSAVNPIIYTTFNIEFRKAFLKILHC

| Structure (SMILES) | MIC [1] | IC50 [2] | IC50 [4] | Ratio (^3 H-DA/^3 H-HALO IC50 ratio) [3] | Ratio (^3 H-DA/^3 H-HALO IC50 ratio) ([3]; IC50 3H-dopamine / IC50 3H-Haloperidol, high ratio indicates dopamine antagonist) | antagonist ratios [3] |
| --- | --- | --- | --- | --- | --- | --- |
| CN1CCN(CCc2c(-c3ccccc3)sc3ccc(Cl)cc23)CC1 [1-[3-(5-chloro-2-phenylbenzo[b]thiophen-3-yl)ethyl]-4-methylpiperazine dihydrochoride] | 10 µg/mL (≈ 27 µM) | – | – | – | – | – |
| CN1CCN(CCCc2c(-c3ccccc3)sc3ccc(Cl)cc23)CC1.Cl.Cl [1-[3-(5-chloro-2-phenylbenzo[b]thiophen-3-yl)propyl]-4-methylpiperazine dihydrochloride] | 100 µg/mL | – | – | – | – | – |
| OCCN1CCN(Cc2c(-c3ccccc3)sc3ccc(Cl)cc23)CC1 [1-[(5-chloro-2-phenylbenzo[b]thiophen-3-yl)methyl]-4-ethanol piperazine dihydrochloride] | 100 µg/mL | – | – | – | – | – |
| Cl.Clc1ccc2sc(-c3ccccc3)c(CCN3CCCC3)c2c1 [1[2-(5-chloro-2-phenylbenzo[b]thiophen-3-yl)ethyl]pyrrolidine hydrochloride] | – | 48 µM | 0.65 µM | – | 74 | comparable to clozapine and chloropromazine |
| CN(C)CCc1c(-c2ccccc2)sc2ccccc12 [2-phenylbenzo[b]thiophene-3-N,N-dimethylethanamine hydrochloride] | – | 12 µM | 0.62 µM | 21 | – | comparable to clozapine and chloropromazine |
| CCN(CC)CCc1c(-c2ccccc2)sc2ccc(Cl)cc12 [5-chloro-2-phenylbenzo[b]thiophene-3-N,N-diethylethanamine hydrochloride] | – | 6 µM | 0.12 µM | 50 | – | comparable to clozapine and chloropromazine |

Now from value to molecule, other results behind:

| MIC [1] | IC50 [2] | IC50 [4] | Ratio (^3 H-DA/^3 H-HALO IC50 ratio) [3] | Structure (SMILES) | Ratio (^3 H-DA/^3 H-HALO IC50 ratio) ([3]; IC50 3H-dopamine / IC50 3H-Haloperidol, high ratio indicates dopamine antagonist) | antagonist ratios [3] |
| --- | --- | --- | --- | --- | --- | --- |
| 100 µg/mL | 20 µM | 0.65 µM | 31 | CN(C)CCc1c(-c2ccccc2)sc2ccc(Cl)cc12 [5-chloro-2-phenylbenzo[b]thiophene-3-N,N-dimethylethanamine hydrochloride] | – | comparable to clozapine and chloropromazine |
| – | 48 µM | 0.35 µM | 137 | CN(C)CCCc1c(-c2ccccc2)sc2ccc(Cl)cc12 [5-chloro-2-phenylbenzo[b]thiophene-3-N,N-dimethylpropanamine hydrochloride] | – | comparable to clozapine and chloropromazine |
| 10 µg/mL | – | – | – | Cl.NCCc1c(-c2ccccc2)sc2ccc(Cl)cc12 [5-chloro-2-phenylbenzo[b]thiophene-3-ethanamine hydrochloride] | – | – |
